target: T1, GRK6, recombinant full-length GST-tagged human protein (Homo sapiens, UniProt P43250); assay: GRK6 IC50 determination (8-point concentration-response); format: biochemical; details: not given
T1 construct: GRK6, recombinant full-length GST-tagged human protein; GST
Description: Two hundred forty compounds were further characterized by determining IC50 values in a GRK6 assay. This screen has been previously described in WO 2013/063458, which is incorporated by reference in its entirety herein.

T1 sequence (P43250 whole entry): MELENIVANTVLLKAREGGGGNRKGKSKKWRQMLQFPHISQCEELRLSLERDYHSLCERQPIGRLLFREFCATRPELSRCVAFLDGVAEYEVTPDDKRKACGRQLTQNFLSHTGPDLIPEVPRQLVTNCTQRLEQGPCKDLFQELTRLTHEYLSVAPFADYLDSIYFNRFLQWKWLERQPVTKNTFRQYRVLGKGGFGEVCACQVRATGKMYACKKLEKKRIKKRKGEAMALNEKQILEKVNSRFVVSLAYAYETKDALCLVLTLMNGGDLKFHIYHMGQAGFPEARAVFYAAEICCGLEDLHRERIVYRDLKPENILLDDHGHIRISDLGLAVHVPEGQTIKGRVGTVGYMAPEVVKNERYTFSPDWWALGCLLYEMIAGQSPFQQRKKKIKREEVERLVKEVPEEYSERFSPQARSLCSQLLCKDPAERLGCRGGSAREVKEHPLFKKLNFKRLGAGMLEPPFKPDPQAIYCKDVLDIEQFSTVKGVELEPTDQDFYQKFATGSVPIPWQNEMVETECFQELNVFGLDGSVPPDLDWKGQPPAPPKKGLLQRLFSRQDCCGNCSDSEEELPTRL

SMILES | IC50
Cc1ccc2cc(-c3cc(-c4nnc(SCC(=O)O)[nH]4)cc([N+](=O)[O-])c3)ccc2c1 [Compound 238] | 0.442 µM
O=C(O)CSc1nnc(-c2cc(-c3cc(Cl)c4ccccc4c3)cc([N+](=O)[O-])c2)[nH]1 [Compound 233] | 0.209 µM
Nc1cc(-c2ccc3ccccc3c2)cc(-c2nnc(SCC(=O)O)[nH]2)c1 [Compound 43] | 0.433 µM
O=C(O)CSc1nnc(-c2cc(-c3ccc4[nH]ncc4c3)cc([N+](=O)[O-])c2)[nH]1 [Compound 15] | 0.14 µM
COc1ccncc1-c1cc(-c2ccc3ccccc3c2)cc(-c2nnc(SCC(=O)O)[nH]2)c1 [Compound 36] | 0.352 µM
CNC(=O)c1cccc(NC(=O)c2cccc(-c3nnc(SCC(=O)O)[nH]3)c2)c1 [Compound 167] | 20.4 µM
CNS(=O)(=O)c1ccc(-c2cc(-c3nnc(SCC(=O)O)[nH]3)cc([N+](=O)[O-])c2)cc1 [Compound 62] | 0.824 µM
O=C(O)CSc1nnc(-c2cc(NC(=O)c3ccoc3)cc(-c3ccc4ccccc4c3)c2)[nH]1 [Compound 67] | 1.31 µM
Cc1c(-c2cc(-c3nnc(SCC(=O)O)[nH]3)cc([N+](=O)[O-])c2)ccc2[nH]c(C(N)=O)cc12 [Compound 235] | 0.358 µM
O=C(O)CSc1nnc(-c2cc(C(=O)NCc3ccccc3)cc([N+](=O)[O-])c2)[nH]1 [Compound 94] | 1.57 µM
Cc1cc(-c2cc(-c3ccc4ccccc4c3)cc(-c3nnc(SCC(=O)O)[nH]3)c2)cnc1C [Compound 54] | 0.598 µM
O=C(O)CSc1nnc(-c2cc(-c3cccc(-c4cc[nH]n4)c3)cc([N+](=O)[O-])c2)[nH]1 [Compound 7] | 0.0923 µM
O=C(O)CSc1nnc(-c2cc(OCc3ccccc3)cc([N+](=O)[O-])c2)[nH]1 [Compound 77] | 0.695 µM
O=C(O)CSc1nnc(-c2cc(C(=O)NCc3ccccn3)cc([N+](=O)[O-])c2)[nH]1 [Compound 111] | 4.41 µM
O=C(O)CSc1nnc(-c2cc(C(=O)Nc3ccccc3)cc([N+](=O)[O-])c2)[nH]1 [Compound 82] | 0.761 µM
CCn1cc(-c2cc(-c3nnc(SCC(=O)O)[nH]3)cc([N+](=O)[O-])c2)cn1 [Compound 73] | 0.342 µM
Cc1cc2cc(-c3cc(-c4nnc(SCC(=O)O)[nH]4)cc([N+](=O)[O-])c3)ccc2n1C [Compound 234] | 0.267 µM
CNS(=O)(=O)c1cccc(-c2cc(-c3nnc(SCC(=O)O)[nH]3)cc([N+](=O)[O-])c2)c1 [Compound 49] | 0.507 µM
O=C(O)CSc1nnc(-c2cc(-c3ccc4scnc4c3)cc([N+](=O)[O-])c2)[nH]1 [Compound 20] | 0.184 µM

SMILES | IC50
O=C(O)CSc1nnc(-c2cc(-c3ccc(C(F)(F)F)nc3)cc(-c3ccc4ccccc4c3)c2)[nH]1 [Compound 70] | 2.73 µM
Cc1cc(-c2cc(-c3nnc(SCC(=O)O)[nH]3)cc([N+](=O)[O-])c2)cc2ccn(C)c12 [Compound 231] | 0.15 µM
Cc1ccc(-c2cc(-c3ccc4ccccc4c3)cc(-c3nnc(SCC(=O)O)[nH]3)c2)o1 [Compound 63] | 0.824 µM
CS(=O)(=O)c1cccc(-c2cc(-c3nnc(SCC(=O)O)[nH]3)cc([N+](=O)[O-])c2)c1 [Compound 60] | 0.779 µM
COc1ccc(-c2cc(-c3ccc4ccccc4c3)cc(-c3nnc(SCC(=O)O)[nH]3)c2)cn1 [Compound 66] | 1.08 µM
O=C(O)CSc1nnc(-c2cc(-c3ccc(-c4ccn[nH]4)cc3)cc([N+](=O)[O-])c2)[nH]1 [Compound 2] | 0.0588 µM
O=C(O)CSc1nnc(-c2ccc(OCc3ccccc3)c([N+](=O)[O-])c2)[nH]1 [Compound 86] | 0.935 µM
Cn1nc(C(F)(F)F)cc1-c1cc(-c2nnc(SCC(=O)O)[nH]2)cc([N+](=O)[O-])c1 [Compound 97] | 2.49 µM
CS(=O)(=O)Nc1cccc(-c2cc(-c3nnc(SCC(=O)O)[nH]3)cc([N+](=O)[O-])c2)c1 [Compound 32] | 0.3 µM
O=C(O)CSc1nnc(-c2cc(-c3ccc4nccnc4c3)cc([N+](=O)[O-])c2)[nH]1 [Compound 50] | 0.509 µM
Cc1cncc(-c2cc(-c3ccc4ccccc4c3)cc(-c3nnc(SCC(=O)O)[nH]3)c2)c1 [Compound 34] | 0.349 µM
O=C(O)CSc1nnc(-c2cc(-c3ccc4[nH]c(-c5ccccc5)cc4c3)cc([N+](=O)[O-])c2)[nH]1 [Compound 33, 2-((3-(3-nitro-5-(2-phenyl-1H-indol-5-yl)phenyl)-1H-1,2,4-triazol-5-yl)thio)acetic acid] | 0.302 µM
Cc1nn(C)c(C)c1-c1cc(-c2nnc(SCC(=O)O)[nH]2)cc([N+](=O)[O-])c1 [Compound 93] | 1.57 µM
CCn1ccc2cc(-c3cc(-c4nnc(SCC(=O)O)[nH]4)cc([N+](=O)[O-])c3)ccc21 [Compound 11] | 0.118 µM
O=C(O)CSc1nnc(-c2cc(-c3ccc4c(c3)[nH]c3ccccc34)cc([N+](=O)[O-])c2)[nH]1 [Compound 240] | 0.93 µM
Cn1ccc2cc(-c3cc(-c4n[nH]c(SCC(=O)O)n4)cc([N+](=O)[O-])c3)cc(Cl)c21 [Compound 229] | 0.114 µM
O=C(O)CSc1nnc(-c2cc(-c3ccc4ccccc4c3)cc(-c3cnccc3F)c2)[nH]1 [Compound 58] | 0.751 µM
CC(C)Oc1ccc(-c2nnc(SCC(=O)O)n2CC(=O)O)cc1[N+](=O)[O-] [Compound 193] | > 200 µM

Other lines, results leading:

IC50 | SMILES
13.4 µM | O=C(O)CSc1nnc(-c2ccc3c(c2)OCCO3)[nH]1 [Compound 154]
28.1 µM | O=C(O)CSc1nnc(-c2cccc3ccccc23)[nH]1 [Compound 174]
3.47 µM | COc1cc(-c2nnc(SCC(=O)O)[nH]2)cc2c1OCO2 [Compound 108]
0.275 µM | O=C(O)CSc1nnc(-c2cc(-c3ccc4c(c3)OCO4)cc([N+](=O)[O-])c2)[nH]1 [Compound 30]
0.101 µM | O=C(O)CSc1nnc(-c2cc(-c3cccc4[nH]ccc34)cc([N+](=O)[O-])c2)[nH]1 [Compound 8]
80.6 µM | CC(C)Oc1ccc(-c2nnc(SCC(=O)O)[nH]2)cc1N [Compound 190]
4.85 µM | O=C(O)CSc1nnc(-c2ccc3nsnc3c2)[nH]1 [Compound 117]
21.3 µM | COc1ccc(NC(=O)c2cccc(-c3nnc(SCC(=O)O)[nH]3)c2)cc1 [Compound 170]
0.742 µM | O=C(O)CSc1nnc(-c2cc(-c3cc[nH]n3)cc([N+](=O)[O-])c2)[nH]1 [Compound 78]
1.05 µM | Cn1nccc1-c1cc(-c2nnc(SCC(=O)O)[nH]2)cc([N+](=O)[O-])c1 [Compound 88]
7.92 µM | O=C(O)CSc1nnc(-c2cccc(C(=O)Nc3cccc(Cl)c3)c2)[nH]1 [Compound 135]
29.6 µM | O=C(O)CSc1nnc(-c2cccc3cnccc23)[nH]1 [Compound 175]
47.8 µM | O=C(O)CSc1nnc(-c2cccc(C(=O)Nc3ccccc3Cl)c2)[nH]1 [Compound 186]
18.5 µM | O=C(O)CSc1nnc(-c2cccc3c2OCO3)[nH]1 [Compound 164]
> 100 µM | O=C(O)CSc1nnc(-c2cccc3c2OCCCO3)[nH]1 [Compound 197]
0.653 µM | COc1ccc2cc(-c3nnc(SCC(=O)O)[nH]3)ccc2c1 [Compound 76]
0.538 µM | CN(C)c1cccc(-c2cc(-c3nnc(SCC(=O)O)[nH]3)cc([N+](=O)[O-])c2)c1 [Compound 53]
0.886 µM | O=C(O)CSc1nnc(-c2ccc3ccccc3c2)[nH]1 [Compound 85]
3.39 µM | O=C(O)CSc1nnc(-c2ccc3ncccc3c2)[nH]1 [Compound 107]
12.9 µM | COc1cccc(NC(=O)c2cccc(-c3nnc(SCC(=O)O)[nH]3)c2)c1 [Compound 151]
9.82 µM | O=C(O)CSc1nnc(-c2cccc(C(=O)Nc3cccc4[nH]ccc34)c2)[nH]1 [Compound 143]

same assay, conditions: 20 nM GRK6, 12 μM ATP (Km), 1 μM Peptide 216, 7 h incubation

IC50 | SMILES
7.45 µM | O=C(O)CSc1nnc(-c2ccc(-c3cncnc3)cc2)[nH]1 [Compound 134]
6.1 µM | COc1cc(OC)cc(-c2nnc(SCC(=O)O)[nH]2)c1 [Compound 122]
25.8 µM | CCN(CC)c1ccc(-c2nnc(SCC(=O)O)[nH]2)c(O)c1 [Compound 173]
4.47 µM | O=C(O)CSc1nnc(-c2cccc(-n3cncn3)c2)[nH]1 [Compound 112]
5.02 µM | O=C(O)CSc1nnc(-c2ccc(O)c(O)c2)[nH]1 [Compound 119]
0.51 µM | COc1ccc2cc(-c3cccc(-c4nnc(SCC(=O)O)[nH]4)c3)ccc2c1 [Compound 51]
4.11 µM | CC(=O)c1cccc(-c2nnc(SCC(=O)O)[nH]2)c1 [Compound 110]
7.37 µM | O=C(O)CSc1nnc(-c2ccc(-c3ccccc3)cc2)[nH]1 [Compound 133]
10.7 µM | O=C(O)CSc1nnc(-c2cccc(F)c2F)[nH]1 [Compound 145]
6.54 µM | O=C(O)CSc1nnc(-c2cc(O)cc(O)c2)[nH]1 [Compound 127]
8.84 µM | CCSc1ccc(-c2nnc(SCC(=O)O)[nH]2)cc1 [Compound 141]
4.55 µM | COc1ccc(O)c(-c2nnc(SCC(=O)O)[nH]2)c1 [Compound 113]
11.6 µM | O=C(O)CSc1nnc(-c2ccc(O)cc2O)[nH]1 [Compound 147]
9.56 µM | COC(=O)c1ccc(-c2nnc(SCC(=O)O)[nH]2)cc1 [Compound 142]
15.9 µM | COc1cc(-c2nnc(SCC(=O)O)[nH]2)cc([N+](=O)[O-])c1O [Compound 158]
2.71 µM | Cc1ccc(O)c(-c2nnc(SCC(=O)O)[nH]2)c1 [Compound 99]
15.4 µM | O=C(O)CSc1nnc(-c2ccc(N3CCCC3=O)cc2)[nH]1 [Compound 157]
51.8 µM | O=C(O)CSc1nnc(-c2cccc(N3CCCCC3)c2)[nH]1 [Compound 187]
7.36 µM | O=C(O)CSc1nnc(-c2ccc(-n3ccnc3)cc2)[nH]1 [Compound 132]
17.5 µM | C[S+]([O-])c1cccc(-c2nnc(SCC(=O)O)[nH]2)c1 (centres unmarked) [Compound 162]
23.7 µM | COc1cc(F)c(-c2nnc(SCC(=O)O)[nH]2)cc1OC [Compound 172]
4.99 µM | COc1ccc(-c2nnc(SCC(=O)O)[nH]2)cc1C [Compound 118]

Reference: patent US20170050939A1, “SMALL MOLECULE INHIBITORS OF G PROTEIN COUPLED RECEPTOR 6 KINASE POLYPEPTIDES” (Mayo Foundation for Medical Education and Research, priority 2014, published 2017)
